Tested on: postpartum human fetal membranes
Test: Permeability of postpartum human fetal membranes to FITC-Dextran in a vertical glass diffusion cell after incubation with a substance
Conditions: FIG. 8, 30 minutes incubation, FITC-Dextran 77 KDa, maternal side facing donor compartment
Method: The permeability of postpartum human fetal membranes (obtained from Hillel Yaffe Medical Center, Israel) upon exposure to different substances was determined. The experimental set-up used is shown schematically in FIG. 7. […] The membrane 171 was first incubated with a substance 176 added to the donor compartment 173. After 30 minutes of incubation, the substance was removed from the donor compartment 173. The donor compartment was then washed with PBS, and the donor and receiver compartments were filled with 0.01M phosphate buffered Saline (PBS) 175. 5 mL of a 0.5 mg/mL Dextran solution in PBS (average molecular weight of the Dextran 77 KDa) conjugated to the fluorescent label FITC (fluorescein isothiocyanate-Dextran)) 179 was added to the donor compartment 173. The diffusion cell 172 was protected from light in order to prevent fluorescent bleaching of the FITC. 1 mL samples were withdrawn from the receiver compartment 174 at various times with constant stirring of the receiver compartment, and the concentration of the FITC in the samples was determined spectofluorimetrically.
From the rate of increase in the concentration of the fluorescence in the receiver compartment 174, the extent of permeability enhancement of the membrane, in comparison to a control experiment was calculated.

CCCCCCCCCCCCCCCC[N+](C)(C)C.[Br-] [Cetyl trimethylammonium bromide (CTAB), Cetyl trimethylammonium bromide]
enhancement in permeability of the membrane compared to control (substance at 4%): Enhanced permeability

CN1CCCC1=O [N-methy-2-pyrrolidone (NMP), N-methy-2-pyrrolidone]
enhancement in permeability of the membrane compared to control (concentration not given): Enhanced permeability

CCCCCCCC/C=C\CCCCCCCC(=O)O [Oleic acid]
enhancement in permeability of the membrane compared to control (substance at 1.5%): Enhanced permeability

CCCCCCCCCCCCOS(=O)(=O)[O-].[Na+] [SLS, sodium lauryl sulfate]
enhancement in permeability of the membrane compared to control (substance at 1%): Enhanced permeability

CCCCN1CCCCC1C(=O)Nc1c(C)cccc1C (stereo not shown) [bupivacaine]
enhancement in permeability of the membrane compared to control (substance at 0.5%): Enhanced permeability

OCCO [ethylene glycol]
enhancement in permeability of the membrane compared to control (substance at 10%): Enhanced permeability

CC(C)CCCCCCCCCCCCCCC(=O)O [iso-stearic acid]
enhancement in permeability of the membrane compared to control (substance at 10%): Enhanced permeability
